Experimental data from the NIST ThermoML archive (doi:10.1016/j.jct.2013.12.021).
Numbers after ± are expanded uncertainties.

Assay: Boiling temperature at pressure P
Conditions: 101.33 kPa; Liquid; Ebulliometric method (Recirculating still)

- Boiling temperature at pressure P: 64.50 ± 0.1 °C
SMILES: CO [methanol]
